{"source": "patent US9303042B2", "about": "“Triazolothienopyrimidine compound inhibitors of urea transporters and methods of using inhibitors” (The Regents of the University of California, priority 2012, dated 2016)", "key": {"[1]": {"assay": "In vitro metabolic stability in hepatic microsomes", "format": "in vitro ADME, rat", "protocol": "Compounds, each at 5 μM, were incubated for specified times at 37° C. with rat liver microsomes (1 mg protein/ml; Sigma-Aldrich, St. Louis, Mo.) in potassium phosphate buffer (100 mM) containing 1 mM NADPH. The mixture was then chilled on ice, and 0.5 ml of ice-cold ethyl acetate was added."}, "[2]": {"assay": "LC/MS analysis of compound in mouse kidney, blood and urine", "details": "for many hours after intraperitoneal bolus 400 μg", "experimental": "In some studies, mice were placed on low, normal or […] diets (4%, 20% or 40% casein, Harlan Labs.) for 1 week prior study of dDAVP effects. […] Urea concentration was determined by a colorimetric enzymatic assay as described above. Measurements were also done in the absence of dDAVP in which urine was collected during free access to food and water.\nKidneys were weighed, mixed with acetic acid (100 μL per 1 g tissue) and ethyl acetate (10 mL per 1 g tissue), and homogenized."}, "mice": {"test_system": "mice", "assay": "Urinary concentration in mice", "format": "in vivo, mouse", "experimental": "In some studies, mice were placed on low, normal or […] diets (4%, 20% or 40% casein, Harlan Labs.) for 1 week prior study of dDAVP effects. […] Urea concentration was determined by a colorimetric enzymatic assay as described above. Measurements were also done in the absence of dDAVP in which urine was collected during free access to food and water. […]"}, "UT-A1": {"biological_target": "T1, UT-A1 (Rattus norvegicus, UniProt Q62668)", "T1 construct": "expressed in transfected cells; host or cells: MDCK cells (MDCK-UT-A1), obtained as described in cited literature", "T1 sequence (Q62668 1-929)": "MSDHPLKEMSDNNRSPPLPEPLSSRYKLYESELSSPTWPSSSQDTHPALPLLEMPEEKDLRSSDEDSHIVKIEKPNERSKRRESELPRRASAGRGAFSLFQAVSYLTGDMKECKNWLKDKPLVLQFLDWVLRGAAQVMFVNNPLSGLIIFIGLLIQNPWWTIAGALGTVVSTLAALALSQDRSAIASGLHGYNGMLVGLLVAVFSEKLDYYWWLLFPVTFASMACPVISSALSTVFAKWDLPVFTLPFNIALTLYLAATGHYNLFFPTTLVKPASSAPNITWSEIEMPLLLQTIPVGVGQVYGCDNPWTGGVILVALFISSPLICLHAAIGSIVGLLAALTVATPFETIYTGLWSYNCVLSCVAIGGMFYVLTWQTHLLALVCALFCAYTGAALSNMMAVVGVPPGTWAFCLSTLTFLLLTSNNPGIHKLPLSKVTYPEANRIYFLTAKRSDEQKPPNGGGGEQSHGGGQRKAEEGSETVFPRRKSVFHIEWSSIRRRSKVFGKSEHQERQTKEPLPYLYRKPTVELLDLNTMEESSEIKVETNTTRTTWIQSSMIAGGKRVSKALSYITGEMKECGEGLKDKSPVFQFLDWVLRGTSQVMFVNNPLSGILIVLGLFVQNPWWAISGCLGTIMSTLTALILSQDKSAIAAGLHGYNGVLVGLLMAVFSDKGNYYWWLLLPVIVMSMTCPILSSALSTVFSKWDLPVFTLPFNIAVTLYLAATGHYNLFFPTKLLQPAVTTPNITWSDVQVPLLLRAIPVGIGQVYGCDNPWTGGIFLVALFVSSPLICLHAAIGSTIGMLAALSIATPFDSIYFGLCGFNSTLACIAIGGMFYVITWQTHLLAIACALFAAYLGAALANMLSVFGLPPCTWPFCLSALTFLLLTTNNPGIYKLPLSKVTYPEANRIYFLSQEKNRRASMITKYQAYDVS", "assay": "Transepithelial urea transport in MDCK cells stably expressing UT-A1", "format": "cell-based", "details": "phloretin 100 μM", "experimental": "(§1) UT-B selectivity and cytotoxicity were studied. Because of sequence similarities between UT-B and UT-A isoforms, UT-A inhibition was measured. Transepithelial urea transport was measured in MDCK cells stably expressing UT-A1, UT-A3, and UT-B. UT-A1 and UT-A3 are cAMP-regulated urea transporters expressed in kidney tubule epithelia (see, e.g., Frohlich et al., Am. J. Physiol. Cell Physiol. 291:C600-606 (2006); Tickle et al., Am. J. Physiol. Regul. Integr. Comp Physiol 0.297: R323-329 (2009); Stewart et al., Am. J. Physiol. Renal Physiol. 292:F1157-63 (2006)). MDCK cells were cultured on collagen-coated porous filters for measurement of urea accumulation in the apical solution following addition of urea to the basolateral solution.\n(§2) cDNAs encoding mouse UT-A3 and UT-B were cloned into pcDNA3.1 and used to generate stably transfected MDCK cell lines. MDCK cells stably expressing rat UT-A1 (MDCK-UT-A1) (see, e.g., Frohlich et al., supra) were obtained as described (see, e.g., Levin et al., FASEB J., supra). Cells were cultured in DMEM containing 10% FBS and 0.5 mg/mL G418. […] Urea flux in the basolateral-to-apical direction across unstimulated and forskolin-stimulated cell layers was measured in response to a 15-mM urea gradient. […]"}, "UT-A3": {"biological_target": "T2, UT-A3 (Mus musculus, UniProt Q8R4T9)", "T2 construct": "expressed in transfected cells", "T2 sequence (Q8R4T9 1-461 isoform Q8R4T9-3)": "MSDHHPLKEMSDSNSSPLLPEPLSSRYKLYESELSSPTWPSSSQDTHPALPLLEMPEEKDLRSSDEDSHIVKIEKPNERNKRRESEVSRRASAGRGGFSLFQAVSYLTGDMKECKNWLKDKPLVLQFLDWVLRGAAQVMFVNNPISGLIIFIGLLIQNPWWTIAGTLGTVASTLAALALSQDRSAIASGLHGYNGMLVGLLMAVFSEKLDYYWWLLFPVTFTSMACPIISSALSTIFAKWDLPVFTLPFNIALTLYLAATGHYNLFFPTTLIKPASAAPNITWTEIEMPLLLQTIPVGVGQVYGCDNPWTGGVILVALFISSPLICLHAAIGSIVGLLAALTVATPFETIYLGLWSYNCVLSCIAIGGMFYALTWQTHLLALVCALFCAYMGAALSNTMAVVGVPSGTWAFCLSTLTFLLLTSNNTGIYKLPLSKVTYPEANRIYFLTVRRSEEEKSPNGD", "assay": "Transepithelial urea transport in MDCK cells stably expressing UT-A3", "format": "cell-based", "details": "phloretin 100 μM", "experimental": "as §1, §2"}, "UT-B": {"biological_target": "T3, UT-B (Mus musculus, UniProt Q8VHL0)", "T3 sequence (Q8VHL0 1-384)": "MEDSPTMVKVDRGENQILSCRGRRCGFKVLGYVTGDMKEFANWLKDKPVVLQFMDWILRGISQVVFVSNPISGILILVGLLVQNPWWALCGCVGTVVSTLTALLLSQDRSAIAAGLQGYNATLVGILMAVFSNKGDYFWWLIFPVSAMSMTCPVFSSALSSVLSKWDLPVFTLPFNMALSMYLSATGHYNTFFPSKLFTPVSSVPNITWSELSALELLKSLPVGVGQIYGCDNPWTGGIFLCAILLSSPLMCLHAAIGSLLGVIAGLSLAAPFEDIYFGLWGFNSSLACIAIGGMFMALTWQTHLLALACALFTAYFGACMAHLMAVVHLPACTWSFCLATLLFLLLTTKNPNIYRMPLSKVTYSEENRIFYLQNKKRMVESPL", "assay": "Transepithelial urea transport in MDCK cells stably expressing UT-B", "format": "cell-based", "details": "phloretin 100 μM", "experimental": "as §1, §2"}, "UT": {"test_system": "UT", "details": "literature; cited from earlier work"}, "TMEM16A": {"biological_target": "T4, TMEM16A (Homo sapiens, UniProt Q5XXA6)", "T4 construct": "expressed in transfected cells", "T4 sequence (Q5XXA6 1-986)": "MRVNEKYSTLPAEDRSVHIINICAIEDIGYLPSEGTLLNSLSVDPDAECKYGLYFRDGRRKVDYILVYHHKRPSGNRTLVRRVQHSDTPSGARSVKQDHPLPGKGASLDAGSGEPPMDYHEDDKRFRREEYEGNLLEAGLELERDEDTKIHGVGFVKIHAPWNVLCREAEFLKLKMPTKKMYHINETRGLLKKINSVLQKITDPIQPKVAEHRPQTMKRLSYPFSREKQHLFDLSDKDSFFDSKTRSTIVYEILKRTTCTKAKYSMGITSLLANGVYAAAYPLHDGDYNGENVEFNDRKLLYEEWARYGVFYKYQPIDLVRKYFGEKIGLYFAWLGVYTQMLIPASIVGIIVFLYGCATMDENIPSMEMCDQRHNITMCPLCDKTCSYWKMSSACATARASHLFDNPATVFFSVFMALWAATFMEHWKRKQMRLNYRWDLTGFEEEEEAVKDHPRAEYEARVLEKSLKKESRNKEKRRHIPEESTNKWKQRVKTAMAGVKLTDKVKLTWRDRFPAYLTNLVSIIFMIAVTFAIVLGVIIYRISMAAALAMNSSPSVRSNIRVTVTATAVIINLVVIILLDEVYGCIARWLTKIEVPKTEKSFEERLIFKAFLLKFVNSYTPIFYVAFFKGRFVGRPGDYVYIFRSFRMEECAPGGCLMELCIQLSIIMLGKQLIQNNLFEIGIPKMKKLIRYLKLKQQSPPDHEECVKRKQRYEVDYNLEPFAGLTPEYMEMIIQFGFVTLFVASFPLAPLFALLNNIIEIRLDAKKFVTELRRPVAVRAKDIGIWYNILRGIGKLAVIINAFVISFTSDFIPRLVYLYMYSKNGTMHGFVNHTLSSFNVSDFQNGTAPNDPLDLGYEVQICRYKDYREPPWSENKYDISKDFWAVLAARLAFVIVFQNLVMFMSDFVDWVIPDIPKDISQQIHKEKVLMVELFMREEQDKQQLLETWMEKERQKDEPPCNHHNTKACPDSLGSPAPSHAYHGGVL", "assay": "TMEM16A calcium-activated chloride conductance by short-circuit current", "format": "cell-based", "details": "100 μM", "experimental": "CFTR chloride conductance was measured by short-circuit current analysis in Fisher rat thyroid (FRT) cells stably expressing CFTR, as described (see, e.g., Ma et al., J. Biol. Chem. (2002), supra). CFTR chloride conductance was stimulated by forskolin and inhibited by a thiazolidinone compound that inhibits CFTR (CFTRinh-172). TMEM16A calcium-activated chloride conductance was measured by short-circuit current analysis in FRT cells stably expressing TMEM16A, as described (see, e.g., Namkung et al., J. Biol. Chem. 286:2365-2374, 2011. TMEM16A was stimulated by ATP and inhibited by tannic acid (100 μM). Cytotoxicity was measured in MDCK using the MTT assay [3(4,5-dimethyl-thiazol-2-yl)-2,5-diphenyl tetrazolium bromide] by standard procedures."}, "CFTR": {"biological_target": "T5, CFTR (Homo sapiens, UniProt P13569)", "T5 construct": "expressed in transfected cells", "T5 sequence (P13569 whole entry)": "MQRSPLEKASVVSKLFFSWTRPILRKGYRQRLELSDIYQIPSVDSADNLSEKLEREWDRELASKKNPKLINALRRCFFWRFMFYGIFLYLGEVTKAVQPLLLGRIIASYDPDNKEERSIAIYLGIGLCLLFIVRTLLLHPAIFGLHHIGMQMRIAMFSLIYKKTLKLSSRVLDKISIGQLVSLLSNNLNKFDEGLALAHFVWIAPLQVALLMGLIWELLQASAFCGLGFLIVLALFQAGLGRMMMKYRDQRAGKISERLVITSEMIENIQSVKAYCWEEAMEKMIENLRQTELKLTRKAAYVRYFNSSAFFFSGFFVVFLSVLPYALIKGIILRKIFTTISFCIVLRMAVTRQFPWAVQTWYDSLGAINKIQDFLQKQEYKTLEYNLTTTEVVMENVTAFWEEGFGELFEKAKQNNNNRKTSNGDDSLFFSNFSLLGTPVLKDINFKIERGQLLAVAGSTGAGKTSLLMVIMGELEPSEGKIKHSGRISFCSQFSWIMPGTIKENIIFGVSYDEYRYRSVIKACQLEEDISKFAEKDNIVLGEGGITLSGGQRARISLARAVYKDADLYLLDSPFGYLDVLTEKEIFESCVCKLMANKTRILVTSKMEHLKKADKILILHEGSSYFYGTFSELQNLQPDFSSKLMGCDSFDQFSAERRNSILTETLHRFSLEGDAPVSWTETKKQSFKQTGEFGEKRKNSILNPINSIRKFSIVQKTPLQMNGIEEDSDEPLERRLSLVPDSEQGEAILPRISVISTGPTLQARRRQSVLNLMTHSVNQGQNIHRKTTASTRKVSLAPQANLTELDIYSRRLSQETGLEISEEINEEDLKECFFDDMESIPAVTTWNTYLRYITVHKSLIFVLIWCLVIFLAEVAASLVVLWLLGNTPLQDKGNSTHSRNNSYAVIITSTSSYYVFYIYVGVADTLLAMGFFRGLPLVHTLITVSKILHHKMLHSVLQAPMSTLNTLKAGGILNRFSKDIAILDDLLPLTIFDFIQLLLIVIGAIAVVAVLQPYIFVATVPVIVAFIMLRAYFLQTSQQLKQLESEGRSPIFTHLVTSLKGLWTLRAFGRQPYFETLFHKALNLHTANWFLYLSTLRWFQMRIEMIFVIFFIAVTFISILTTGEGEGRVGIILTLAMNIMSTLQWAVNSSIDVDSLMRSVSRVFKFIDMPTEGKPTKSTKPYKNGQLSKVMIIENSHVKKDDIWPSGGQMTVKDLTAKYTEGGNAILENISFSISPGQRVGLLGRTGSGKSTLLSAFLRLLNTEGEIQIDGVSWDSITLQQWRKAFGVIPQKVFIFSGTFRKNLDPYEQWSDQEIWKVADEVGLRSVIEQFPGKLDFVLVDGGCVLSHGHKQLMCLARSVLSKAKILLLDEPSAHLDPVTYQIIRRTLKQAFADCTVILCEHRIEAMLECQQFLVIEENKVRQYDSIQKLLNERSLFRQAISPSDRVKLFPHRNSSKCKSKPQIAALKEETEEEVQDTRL", "assay": "CFTR chloride conductance by short-circuit current", "format": "cell-based", "details": "20 μM"}}, "data": [{"compound": "CC(F)(F)c1ccc(S(=O)(=O)c2nnn3c2nc(NCc2cccs2)c2sccc23)cc1", "note": "[Compound 3k, {3-[4-(1,1-Difluoro-ethyl)-benzenesulfonyl]-thieno[2,3-e][1,2,3]triazolo[1,5-a]pyrimidin-5-yl}-thiophen-2-ylmethyl-amine]", "values": [{"measurement": "t1/2 for disappearance in hepatic microsomes", "setting": "[1]; hepatic microsomes, NADPH", "result": "approximately 120 min"}, {"measurement": "% Remaining", "setting": "[1]; parent molecule after 30 min incubation with rat liver microsomes", "result": 96, "unit": "%"}, {"measurement": "stability in vitro compared to UTBinh 14", "setting": "[1]; ratio of microsomal t1/2", "result": "approximately 40 fold"}, {"measurement": "concentrations in blood, kidney and urine", "setting": "[2]", "result": "< 1000", "unit": "nM"}, {"measurement": "reduction of urine osmolality", "setting": "mice; 400 μg intraperitoneal, dDAVP 1 h later, vs formulation alone", "result": "approximately 0.5 Osm/kg H2O"}]}, {"compound": "O=C(CCc1ccc(O)cc1)c1c(O)cc(O)cc1O", "note": "[phloretin, reference compound]", "values": [{"measurement": "UT-facilitated urea transport (UT-A1)", "setting": "UT-A1", "result": "inhibited"}, {"measurement": "UT-facilitated urea transport (UT-A3)", "setting": "UT-A3", "result": "inhibited"}, {"measurement": "UT-facilitated urea transport (UT-B)", "setting": "UT-B", "result": "inhibited"}, {"measurement": "concentration exhibiting activity", "setting": "UT", "result": "> 0.5", "unit": "mM"}]}, {"compound": "O=C(OC[C@H]1O[C@@H](OC(=O)c2cc(O)c(O)c(OC(=O)c3cc(O)c(O)c(O)c3)c2)[C@H](OC(=O)c2cc(O)c(O)c(OC(=O)c3cc(O)c(O)c(O)c3)c2)[C@@H](OC(=O)c2cc(O)c(O)c(OC(=O)c3cc(O)c(O)c(O)c3)c2)[C@@H]1OC(=O)c1cc(O)c(O)c(OC(=O)c2cc(O)c(O)c(O)c2)c1)c1cc(O)c(O)c(OC(=O)c2cc(O)c(O)c(O)c2)c1", "note": "[tannic acid, reference compound]", "values": [{"measurement": "ATP-induced current (TMEM16A)", "setting": "TMEM16A", "result": "blocked"}]}, {"compound": "CFTRinh-172 [reference compound]", "values": [{"measurement": "CFTR chloride current", "setting": "CFTR", "result": "blocked"}]}, {"compound": "[1-deamino-8-D-arginine]-vasopressin [dDAVP, reference compound]", "values": [{"measurement": "urine osmolality after dDAVP", "setting": "mice; control (formulation alone) mice", "result": "> 3", "unit": "Osm/kg H2O"}, {"measurement": "urine osmolality following dDAVP", "setting": "mice; dDAVP 1 μg/kg intraperitoneal, over several hours", "result": "> 3000", "unit": "mosm/kg H2O"}]}]}
